Data taken from patent EP4647433A1, “SHP2 INHIBITOR AND USES THEREOF” (Kanaph Therapeutics Inc., priority 2023, dated 2024).
Read-outs that look alike come from different tables or passages of the source.

Columns and labels:
phospho-ERK = phospho-ERK assay (AlphaLisa) in H358 cells; format: cell-based; settings: Homo sapiens, NCI-H358, 1.5 hours incubation, read-out: pERK assay (IC50)
Description: H358 [20,000 cell/well] was contained in 40 µL of the cell culture solution (RPMI, 10% FBS, penicillin, streptomycin) and placed on a 384-well plate. After 24 hours, the serially diluted compound according to the Examples (concentration of minimum 0.13 nM, maximum 10 µM) was contained in 10 µL of the cell culture solution, put into wells containing cells, and incubated in a cell incubator for 1.5 hours. As a positive control group, the selective SHP2 inhibitor, TNO155 (Chemietek, US; concentration ranging from 0.13 nM to 10 µM) was used.
Thereafter, phospho-ERK was labeled using an AlphaLisa system from PerkinElmer according to the manufacturer's instructions, and then fluorescence (680 nm excitation wavelength, 615 nm emission wavelength) values were measured using a Varioskan equipment from Thermo. IC50 values were obtained using Graphad's Prism from the measured values depending on the concentration.
Intracellular SHP2 activity can be confirmed by measuring the degree of phosphorylation of ERK (extracellular signal regulated kinase), which represents Ras/Raf/ERK, a downstream signal pathway of SHP2. Inhibition of ERK phosphorylation by SHP2 inhibitors was confirmed through phospho-ERK analysis, which confirmed that the SHP2 inhibitors of the present disclosure have excellent activity in inhibiting ERK phosphorylation mediated by SHP2.

SHP2 = target: T1, SHP2 (Homo sapiens, UniProt Q06124); assay: Phosphatase assay (PTPase assay, DiFMUP substrate); format: biochemical
T1 construct: SHP2 (full length, diluted to 100 pM final concentration in reaction buffer, BPS bioscience, US); purchased BPS bioscience, US
T1 sequence (Q06124 1-593): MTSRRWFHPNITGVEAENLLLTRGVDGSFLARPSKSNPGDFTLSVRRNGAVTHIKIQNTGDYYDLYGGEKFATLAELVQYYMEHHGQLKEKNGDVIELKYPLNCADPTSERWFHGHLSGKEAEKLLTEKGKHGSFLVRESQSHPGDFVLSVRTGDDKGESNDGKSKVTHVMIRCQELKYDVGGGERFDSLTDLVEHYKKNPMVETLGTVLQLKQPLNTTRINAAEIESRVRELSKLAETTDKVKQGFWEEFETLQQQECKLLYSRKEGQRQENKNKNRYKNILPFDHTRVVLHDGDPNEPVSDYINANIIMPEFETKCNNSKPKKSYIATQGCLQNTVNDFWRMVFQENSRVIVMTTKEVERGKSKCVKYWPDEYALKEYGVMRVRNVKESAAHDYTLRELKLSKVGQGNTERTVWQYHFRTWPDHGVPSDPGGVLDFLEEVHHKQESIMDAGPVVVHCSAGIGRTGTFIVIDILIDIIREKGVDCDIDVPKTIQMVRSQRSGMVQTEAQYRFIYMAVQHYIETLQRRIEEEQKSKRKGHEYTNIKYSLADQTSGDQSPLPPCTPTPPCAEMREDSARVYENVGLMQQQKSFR
Description: IC50 values were measured using 6,8-difluoro-4-methylumbelliferyl phosphate (DiFMUP) as a substrate. The reaction was performed in a 384-well plate, and fluorescence measurement values were obtained using an EnVision plate reader from PerkinElmer.
SHP2 (full length, diluted to 100 pM final concentration in reaction buffer, BPS bioscience, US) was incubated with the SHP2 activating peptide in reaction buffer (60 mM HEPES (pH 7.2), 75 mM NaCl, 75 mM KCl, 1 mM EDTA, 5 mM DTT, 0.05% P-20) for 30 minutes to activate SHP2. After activation, DMSO [1% (V/V) or the compound according to the Examples (concentration ranging from 0.6 nM to 10 µM)] was added. As a positive control group, the selective SHP2 inhibitors SHP099 (6-(4-amino-4-methylpiperidin-1-yl)-3-(2,3-dichlorophenyl)pyrazin-2-amine, FOCUS bioscience, Austrailia; concentration ranging from 0.6 nM to 10 µM) and TNO155 ((3S,4S)-8-(6-amino-5-((2-amino-3-chloropyridin-4-yl)thio)pyrazin-2-yl)-3-methyl-2-oxa-8-azaspiro[4.5]decan-4-amine, Chemietek, US; concentration ranging from 0.6 nM to 10 µM) were used. [drawing 184]
DiFMUP (80 µM) was added to the reaction and incubated for a total of 2 hours to allow for the reaction to proceed. Thereafter, fluorescence (340 nm excitation, 450 nm emission) values were measured. IC50 values were obtained using Graphad's Prism from the measured values depending on the concentration.
In the phosphatase assay (PTPase assay), when an IC50 value was 100 nM or more, + was indicated, when an IC50 value was 3 nM or more and less than 100 nM, ++ was indicated, and when an IC50 value was less than 3 nM, +++ was indicated.

H358 cells = assay: Cell viability (3D spheroid, 3D CellTiter-Glo); format: cell-based; settings: Homo sapiens, NCI-H358, 120 h; H358 spheroids, 5 days treatment
Description: Human non-small cell lung cancer cell line H358 cells were purchased from the Korean Cell Line Bank. Cancer cell lines were cultured in the recommended RPMI-1640 medium supplemented with 10% fetal bovine serum (FBS) and 1% penicillin/streptomycin. Monolayer-cultured cancer cell lines were detached by treatment with Trypsin/EDTA, and 100 µL of cell suspension containing 4 x 10^3 cells was each dispensed into SPL3D™ Cell Floater, 96-well round plate, through cell line counting. After culturing for 72 hours to form spheroid, the cells were individually treated with the compounds according to the Examples, which had been serially diluted (minimum 1.5 nM, maximum 10 µM in concentration), and then cultured in a cell incubator for 5 days. To analyze cell viability, the cells were treated with 50 uL of 3D CellTiter-Glo, stirred for 5 minutes at 500 rpm in a plate shaker from Thermo Fisher Scientific, and incubated for 25 minutes at room temperature. Then, the luminescent values were measured using a Varioskan equipment from Thermo Fisher Scientific. IC50 values were obtained using GraphPad's Prism from the measured values depending on the concentration.
In the cell viability assay, when an IC50 value was 50 nM or more, + was indicated, when an IC50 value was 10 nM or more and less than 50 nM, ++ was indicated, and when an IC50 value was less than 10 nM, +++ was indicated.

[1] = Brain-plasma Pharmacokinetics; settings: male, CD-1 (ICR), mouse, brain/plasma, 20 mg/kg
Description: Nine male CD-1 mice (ICR mouse) aged 6 to 9 weeks were treated with the compounds according to the Examples at a concentration of 20 mg/kg. 0.025 mL of blood and brain tissue were collected at 1 hour, 8 hours, and 24 hours post-treatment, respectively. The collected blood was placed in an EDTA-K2 tube, centrifuged at 4°C at 3,200 x g for 10 minutes, and the supernatant plasma was collected. The brain tissue samples were collected immediately after euthanizing the CD-1 mice after blood collection and performing cardiac perfusion with cold saline. After collection, the brain tissues were washed with cold saline, wiped and dried, weighed, and homogenized using a homogenization buffer (15 mM PBS (pH 7.4): MeOH = 2:1) at a ratio of 1:3 (1 g of tissue to 3 mL of buffer, dilution ratio 4). Plasma and homogenized brain tissue samples were each transferred to a polypropylene microcentrifuge tube and stored at -60°C or lower. The concentration of compounds distributed in plasma and brain tissue was analyzed using LC-MS/MS, and the distribution in brain tissue compared to plasma was calculated as follows. Brain-to-plasma ratio = AUC(0-t) brain tissue /AUC(0-t) plasma [formula]
In the Brain-plasma Pharmacokinetics assay, when a brain-to-plasma ratio value was 0.05 or more and less than 0.1, + was indicated, when a brain-to-plasma ratio value was 0.1 or more and less than 0.25, ++ was indicated, and when a brain-to-plasma ratio value was more than 0.25, +++ was indicated.

[2] = full length SHP2 100 pM activated with SHP2 activating peptide, DiFMUP 80 µM, 2 hours; read-out: PTPase assay (IC50)

N[C@@H]1c2scnc2CC12CCN(c1cnc(Sc3ccc4nc[nH]c(=O)c4c3Cl)cn1)CC2 [Example 1, (S)-6-((5-(6-amino-4,6-dihydrospiro[cyclopenta[d]thiazole-5,4'-piperidin]-1'-yl)pyrazin-2-yl)thio)-5-chloroquinazolin-4(3H)-one]
IC50 (phospho-ERK): < 45 nM
IC50 (SHP2; [2]): < 3 nM

Cn1cnc2ccc(Sc3cnc(N4CCC5(CC4)Cc4ncsc4[C@H]5N)cn3)c(Cl)c2c1=O [Example 2, (S)-6-((5-(6-amino-4,6-dihydrospiro[cyclopenta[d]thiazole-5,4'-piperidin]-1'-yl)pyrazin-2-yl)thio)-5-chloro-3-methylquinazolin-4(3H)-one]
IC50 (H358 cells): < 10 nM
IC50 (phospho-ERK): < 45 nM
IC50 (SHP2; read-out: PTPase assay (IC50); full length SHP2 100 pM activated with SHP2 activating peptide, DiFMUP 80 µM, 2 hours): < 3 nM

CCn1cnc2ccc(Sc3cnc(N4CCC5(CC4)Cc4ncsc4[C@H]5N)cn3)c(Cl)c2c1=O [Example 3, (S)-6-((5-(6-amino-4,6-dihydrospiro[cyclopenta[d]thiazole-5,4'-piperidin]-1'-yl)pyrazin-2-yl)thio)-5-chloro-3-ethylquinazolin-4(3H)-one]
IC50 (H358 cells): < 10 nM
IC50 (phospho-ERK): < 45 nM
IC50 (SHP2; [2]): < 3 nM

CC(C)n1cnc2ccc(Sc3cnc(N4CCC5(CC4)Cc4ncsc4[C@H]5N)cn3)c(Cl)c2c1=O [Example 4, (S)-6-((5-(6-amino-4,6-dihydrospiro[cyclopenta[d]thiazole-5,4'-piperidin]-1'-yl)pyrazin-2-yl)thio)-5-chloro-3-isopropylquinazolin-4(3H)-one]
IC50 (H358 cells): < 10 nM
IC50 (phospho-ERK): < 45 nM
IC50 (SHP2; [2]): < 3 nM

COCCn1cnc2ccc(Sc3ncc(N4CCC5(CC4)Cc4ccccc4[C@H]5N)nc3N)c(Cl)c2c1=O [Example 8, (S)-6-((3-amino-5-(1-amino-1,3-dihydrospiro[indene-2,4'-piperidin]-1'-yl)pyrazin-2-yl)thio)-5-chloro-3-(2-methoxyethyl)quinazolin-4(3H)-one]
IC50 (phospho-ERK): < 45 nM
IC50 (SHP2; [2]): < 3 nM

COC(C)Cn1cnc2ccc(Sc3ncc(N4CCC5(CC4)Cc4ccccc4[C@H]5N)nc3N)c(Cl)c2c1=O (stereo partly drawn) [Example 9, 6-((3-amino-5-((S)-1-amino-1,3-dihydrospiro[indene-2,4'-piperidin]-1'-yl)pyrazin-2-yl)thio)-5-chloro-3-(2-methoxypropyl)quinazolin-4(3H)-one]
IC50 (phospho-ERK): < 45 nM
IC50 (SHP2; [2]): < 3 nM

Cn1cnc2ccc(Sc3ncc(N4CCC5(CC4)Cc4ccccc4[C@H]5N)nc3N)c(Cl)c2c1=O [Example 10]
IC50 (phospho-ERK): < 45 nM
IC50 (SHP2; [2]): < 3 nM

C[C@@H]1OCC2(CCN(c3cnc(Sc4ccc5ccn(C)c(=O)c5c4Cl)cn3)CC2)[C@@H]1N [Example 15, 7-((5-((3S,4S)-4-amino-3-methyl-2-oxa-8-azaspiro[4.5]decan-8-yl)pyrazin-2-yl)thio)-8-chloro-2-methylisoquinolin-1(2H)-one]
IC50 (H358 cells): 10 to 50 nM
Kp at 24 h [1]: 0.05 to 0.1
IC50 (SHP2; [2]): < 3 nM

COC(C)(C)C(F)n1cnc2ccc(Sc3cnc(N4CCC5(CC4)CO[C@@H](C)[C@H]5N)cn3)c(Cl)c2c1=O (stereo partly drawn) [Example 28, 6-((5-((3S,4S)-4-amino-3-methyl-2-oxa-8-azaspiro[4.5]decan-8-yl)pyrazin-2-yl)thio)-5-chloro-3-(1-fluoro-2-methoxy-2-methylpropyl)quinazolin-4(3H)-one]
IC50 (H358 cells): 10 to 50 nM
IC50 (phospho-ERK): 45 to 1500 nM
IC50 (SHP2; [2]): < 3 nM

N[C@@H]1c2ccccc2CC12CCN(c1cnc(Sc3ccc4ncn(-c5cccnc5)c(=O)c4c3Cl)cn1)CC2 [Example 31, (S)-6-((5-(1-amino-1,3-dihydrospiro[indene-2,4'-piperidin]-1'-yl)pyrazin-2-yl)thio)-5-chloro-3-(pyridin-3-yl)quinazolin-4(3H)-one]
IC50 (H358 cells): < 10 nM
IC50 (phospho-ERK): 45 to 1500 nM
Kp at 24 h [1]: 0.1 to 0.25

COC(C)(C)Cn1cnc2ccc(Sc3cnc(N4CCC5(CC4)Cc4ccccc4[C@H]5N)nn3)c(Cl)c2c1=O [Example 34, (S)-6-((3-(1-amino-1,3-dihydrospiro[indene-2,4'-piperidin]-1'-yl)-1,2,4-triazin-6-yl)thio)-5-chloro-3-(2-methoxy-2-methylpropyl)quinazolin-4(3H)-one]
IC50 (H358 cells): < 10 nM
Kp at 24 h [1]: 0.1 to 0.25
IC50 (SHP2; [2]): < 3 nM

COC(C)Cn1c(C)nc2ccc(Sc3cnc(N4CCC5(CC4)CO[C@@H](C)[C@H]5N)cn3)c(Cl)c2c1=O (stereo partly drawn) [Example 39, 6-((5-((3S,4S)-4-amino-3-methyl-2-oxa-8-azaspiro[4.5]decan-8-yl)pyrazin-2-yl)thio)-5-chloro-3-(2-methoxypropyl)-2-methylquinazolin-4(3H)-one]
IC50 (H358 cells): 10 to 50 nM
IC50 (phospho-ERK): 45 to 1500 nM
IC50 (SHP2; [2]): < 3 nM

COC(C)Cn1ccc2ccc(Sc3cnc(N4CCC5(CC4)Cc4ccccc4[C@H]5N)cn3)c(Cl)c2c1=O (stereo partly drawn) [Example 42, 7-((5-((S)-1-amino-1,3-dihydrospiro[indene-2,4'-piperidin]-1'-yl)pyrazin-2-yl)thio)-8-chloro-2-(2-methoxypropyl)isoquinolin-1(2H)-one]
IC50 (H358 cells): < 10 nM
IC50 (SHP2; [2]): < 3 nM

CC(C)n1ccc2ccc(Sc3cnc(N4CCC5(CC4)CO[C@@H](C)[C@H]5N)cn3)c(Cl)c2c1=O [Example 46, 7-((5-((3S,4S)-4-amino-3-methyl-2-oxa-8-azaspiro[4.5]decan-8-yl)pyrazin-2-yl)thio)-8-chloro-2-isopropylisoquinolin-1(2H)-one]
IC50 (H358 cells): 10 to 50 nM
IC50 (SHP2; [2]): < 3 nM

Cn1cnc2ccc(Sc3cnc(N4CCC5(CC4)Oc4ccccc4[C@H]5N)cn3)c(Cl)c2c1=O [Example 51, (R)-6-((5-(3-amino-3H-spiro[benzofuran-2,4'-piperidin]-1'-yl)pyrazin-2-yl)thio)-5-chloro-3-methylquinazolin-4(3H)-one]
Kp at 24 h [1]: > 0.25

N[C@@H]1c2ccccc2OC12CCN(c1cnc(Sc3ccc4ncn(-c5ccccc5)c(=O)c4c3Cl)cn1)CC2 [Example 52, (R)-6-((5-(3-amino-3H-spiro[benzofuran-2,4'-piperidin]-1'-yl)pyrazin-2-yl)thio)-5-chloro-3-phenylquinazolin-4(3H)-one]
Kp at 24 h [1]: > 0.25
